From patent US11879137B2, “Treatment of type 1 diabetes and autoimmune diseases or disorders” (THE CHILDREN'S MEDICAL CENTER CORPORATION, priority 2017, dated 2024) come the findings set out here.

This test relates to KL cells from bone marrow of NOD mice. In words: Flow cytometry of murine KL cells modulated with PGE2 or dmPGE2. To be noted: for CXCR4 among chemokine receptors on treated KL cells: chemokine receptor profile; for expression of PD-L2, PD-1, CD80 and CD40: vs unmodulated KL cells. The class given is cell-based. The source says:
FIGS. 19A-19G show the profile of murine KL cells. (FIG. 19A-19B) Representative flow cytometric analysis and quantitative bar graph of PD-L1 expression on Lineage^−c-kit^+ (KL) cells from NOD mice pre- and post-pharmacologic modulation with PGE2. (FIG. 19C-19D) Representative flow cytometric analysis and quantitative bar graph of CXCR4 expression on KL cells from NOD mice pre- and post-pharmacologic modulation with PGE2. (FIG. 19E) Quantitative bar graph of flow cytometric expression of positive and negative costimulatory molecules (CD40, CD80, CD86, PD-L1, PD-L2 and PD-1) and of select pro-inflammatory and anti-inflammatory cytokines (IFN-γ, IL-10, IL-4) in PGE2-modulated KL cells from NOD mice as compared to those modulated with a selected PGE2 clinical grade agonist (dmPGE2) and compared to unmodulated KL cells isolated from the bone marrow of normoglycemic NOD mice. (FIG. 19F) Flow cytometric expression of selected chemokine receptors (CXCR4, CCR2, CCR4, CCR5, CCR6, CCR7, CCR8, and CXCR3) in PGE2-modulated KL cells from NOD mice as compared to those modulated with a selected PGE2 clinical grade agonist (dmPGE2) and to unmodulated KL cells isolated from the bone marrow of normoglycemic NOD mice. (FIG. 19G) Quantitative bar graph of flow cytometric expression of chemokines receptors (CCR2, CCR4, CCR5, CCR6, CCR7, CCR8, CXCR3 and CXCR4) in PGE2-modulated KL cells from NOD mice as compared to those modulated with a selected PGE2 clinical grade agonist (dmPGE2) and compared to unmodulated KL cells isolated from the bone marrow of normoglycemic NOD mice. […] Abbreviations: KL, Lineage^−c-kit^+ cells.
Murine regulatory KL cell modulation. Murine bone marrow KL (c-Kit+Lineage-) cells were isolated using magnetic beads and MACS® separation columns (Miltenyi Biotec, San Diego, CA) and ˜2×10^5 cells were plated in a U-bottomed 96-well plate with 200 μl of stem cell medium, Stemspan-SFEMII (STEMCELL Technologies, Cambridge, MA) and PGE2 (PromoKine, PromoCell Gmbh, Germany) was added at day 0 and day 1, at a concentration of 10 μM.
Flow cytometric analysis and intracellular cytokine staining. Flow cytometry was performed to analyze surface expression markers of PGE2-modulated HSPCs and dmPGE2 (16, 16-dimethyl PGE2)-modulated HSPCs. Anti-mouse PD-L1, PD-L2, PD-1, CD40, CD80, CD86, CD4, CD8, Ly-6G (Gr-1), B220, CD3, CXCR4, CCR2, CCR4, CCR5, CCR6, CCR7, CCR8, CXCR3, IL-4, IL-10 and IFN-γ were purchased from BD Biosciences, eBioscience (San Diego, CA) and BioLegend. The following antibodies corresponded to isotype controls for the murine antibodies above: PE mouse IgG1, κ isotype ctrl, Armenian hamster IgG; APC mouse IgG2b, κ isotype ctrl, Armenian hamster IgG. Cells were subjected to FACS analysis and were run on a FACSCalibur™ (Becton Dickinson). Data were analyzed using FlowJo software version 8.7.3 (Treestar).
Murine PGE2-modulated HSPCs abrogate the autoimmune response in vitro. The feasibility of pharmacological modulation of PD-L1 with PGE2 was next explored in murine HSPCs. […] Moreover, the chemokine receptor profile of PGE2-modulated KL cells as compared to dmPGE2-modulated KL cells and unmodulated KL cells was explored in order to assess which chemokines are potentially involved in the homing of PGE2-modulated and dmPGE2-modulated KL cells. […] The immunoregulatory properties of PGE2-modulated KL cells was next explored in an autoimmune setting in vitro. PGE2-modulated KL cells generated from normoglycemic NOD mice were co-cultured at ratios of 1:1, 1:5 and 1:10 (KL cells to T cells) with CD11c+ DCs and BDC2.5 transgenic CD4+CD25− T cells in the presence of BDC2.5 peptide. […] Indeed, PGE2-modulated KL cells exerted a robust immunoregulatory effect even if added at low ratios (1:5 PGE2-treated KL cell to T cells). A less pronounced effect was observed when unmodulated KL were added to the assays. […] PGE2-modulated HSPCs are thus endowed with immunoregulatory properties and are capable of abrogating the autoimmune response in vitro. […]

On to `CCCCC(C)(C)[C@H](O)/C=C/[C@H]1[C@H](O)CC(=O)[C@@H]1C/C=C\CCCC(=O)O` [16,16-dimethyl PGE2], for which the “CXCR4 among chemokine receptors on treated KL cells” value was “most expressed”; the “expression of PD-L2, PD-1, CD80 and CD40” value is on record as “similarly upregulated”.
For `CCCCC[C@H](O)/C=C/[C@H]1[C@H](O)CC(=O)[C@@H]1C/C=C\CCCC(=O)O` [PGE2, prostaglandin E2], the “CXCR4 among chemokine receptors on treated KL cells” value was “most expressed”; the “expression of PD-L2, PD-1, CD80 and CD40” value is recorded as “upregulation”. Besides, the “CXCR4 expression on KL cells” value (FACS) is given as “markedly upregulated”. Also, the “PD-L1 expression on KL cells” value (FACS, 10 μM day 0 and day 1) is on record as “upregulation”.
